In test [1] the test system is SRB (sulfate reducing bacteria). Description: Biocide efficacy study on high TDS (10%) fluid sample, Rapid SRB Detection Pouches (thin-film culture device). Format: cell-based. The note with it: 4-hour biocide contact.
Procedure: A biocide efficacy study on a high TDS (10%) fluid sample using a thin-film culture device was evaluated and compared to the traditional bug-bottle approach. The high TDS fluid sample was inoculated with mature SRB. Seventy-two 3 mL doses of the fluid sample were then introduced into 72 respective Rapid SRB Detection Pouches.
(§1) The fluid samples were then incubated at a temperature of 32° C. After approximately 24 hours of inoculation, the SRB count was measured using the incubation and referencing procedure of Example 1. The bug bottle numbers were determined by counting the number of bottles in a serial dilution which had formed a visible black precipitate.
Test [2] shares this test system. The experiment in a line: Biocide efficacy study on low TDS (1%) fluid sample, Rapid SRB Detection Pouches (thin-film culture device). Format: cell-based. To be noted: for reduction in SRB count: 24-hour biocide contact.
Procedure: In this example, an assessment of biological contamination was performed using culture devices including indicator reagents. More specifically, SRB enumeration in various water samples including SRB was performed using thin-film culture devices (“pouches”). Three milliliters of two samples, Sample A and Sample B, were introduced into separate Rapid SRB Detection Pouches (manufactured by 3M™). The pouches were sealed and incubated at 32° C. The pouches were incubated upright to allow the precipitate to settle toward the bottom of pouch. The SRB count of each sample was measured at multiple time intervals using a visual technique where the color of the samples was compared to reference colors as shown in FIGS. 2A and 2B. The degree of blackening of the sample at certain time points compared to the reference is indicative of SRB count.
A biocide efficacy study on a low TDS (1%) fluid sample using a thin-film culture device was evaluated and compared to the traditional bug-bottle approach. The low TDS fluid sample was inoculated with mature SRB. Seventy-two 3 mL doses of the fluid sample were then introduced into 72 Rapid SRB Detection Pouches. […] The dosages were based on the standard US Environmental Protection Agency (EPA) recommendations for each respective biocide:
as §1
[3] abbreviates: dose level not clearly singled out.

Take `CCCCCCCCCC[N+](C)(C)CCCCCCCCCC.[Cl-]` [Quat, didecyldimethyl ammonium chloride]: the “reduction in SRB count in comparison to the control” value in test [1] (setting [3]) was “all but the Quat and THPS low dose biocide groups demonstrated a reduction in SRB count”. Further, in test [2] (setting [3]), the “reduction in SRB count” value was “all but the didecyldimethyl ammonium chloride and THPS low dose biocide groups demonstrated a reduction in SRB count”.
With “tetrakis(hydroxymethyl)phosphonium sulfate [THPS]”, the “reduction in SRB count in comparison to the control” value was “all but the Quat and THPS low dose biocide groups demonstrated a reduction in SRB count” in test [1] (low dose (THPS Low 25 ppm)); “all but the THPS Low biocide group demonstrated a reduction in SRB count” in test [2] (4-hour biocide contact, low dose (THPS Low 25 ppm)). In test [2] (low dose (THPS Low 25 ppm)), the “reduction in SRB count” value is “all but the didecyldimethyl ammonium chloride and THPS low dose biocide groups demonstrated a reduction in SRB count”.

(Values after patent US12098416B2, “Assessment of biological contamination and biological contamination treatment” (Halliburton Energy Services, Inc., priority 2019, dated 2024).)
